Measured values: US11629192B2, “Methods and pharmaceutical compositions for the treatment of diseases mediated by the NRP-1/OBR complex signaling pathway” (INSERM (Institut National de la Sante et de la Recherche …, priority 2014, dated 2023)

Key:
P-NRP-1 = test: NRP-1 (P-NRP-1) and OBR phosphorylation in MDA-MB-231, immunostaining / coimmunoprecipitation; format: cell-based, human; conditions: MDA-MB-231 serum starved, Leptin (10 nM)
Excerpt: Beside the modulation of the NRP-1/OBR complex formation by Leptin and OBR phosphorylation, we postulated a possible phosphorylation of NRP-1 that can regulate the translocation of the complex to the nucleus. Two putative phosphorylation sites of NRP-1 have been reported with no more investigation. The first one at the extracellular B domain as reported by Shintani et al in 2009 with no antibody available and the second one at the Threonine 916 located in the cytoplasmic domain as it was reported by Kyle et al in 2011. Since a specific antibody against P-NRP-1 at the T916 was available, we investigated by coimmunoprecipitation the detection of P-NRP-1 in MDA-MB-231 after serum starvation and stimulation by Leptin (10 nM). […] To confirm this phosphorylation state, we investigated the possible implication of a Serine/threonine Kinase CK2 using one of its first chemical inhibitor (DRB). In serum starved condition, P-NRP-1 was detected as polarized spot in the cytoplasm and the nucleus of MDA-MB-231. […] The inhibition was specific since, in stimulated condition combined with DMSO at the same dilution of DRB, we were able to observe a diffuse nuclear P-NRP-1 staining.

[1] = tested on: OBR and STAT3 phosphorylation; test: OBR and STAT3 phosphorylation in cytoplasmic and nuclear fractions; format: cell-based; conditions: Leptin stimulation
Excerpt: Since both NRP-1/OBR complex formation and NRP-1 phosphorylation were abolished by CK2 inhibition, we supposed that OBR signaling pathway could be also affected by CK2 inhibition.

NRP-1 = NRP-1 (Homo sapiens, UniProt O14786); test: Direct binding of Leptin to NRP-1 by HTRF and confocal microscopy
Excerpt: NRP-1 has been reported to bind directly VEGF increasing thus the binding affinity of VEGF to its receptor VEGFR2 […] and Sema3A enabling thus its binding to Plexin 3A. Our study led us to highlight a new mechanism of NRP-1 function. […] NRP-1 repression by siNRP-1 decreased the BRET signal and OBR oligomerization.

[2] = tested on: MDA-MB-231-shNRP-1 xenografts; test: MDA-MB-231 xenografts in Nude mice; format: in vivo; conditions: Leptin treatment, KL1 staining
Excerpt: (§1) First MBA-MB-231 and T47D breast cancer cells line were selected for their high and undetectable NRP-1 expression respectively and the expression of Leptin receptor (OBR). In order to investigate NRP-1 and Leptin association in breast cancer cell line migration, we proceeded to NRP-1 expression silencing in MDA-MB-231 using either siRNA or shRNA approaches or NRP-1 overexpression in T47D. […] In contrast Leptin induced MDA-MB-231 migration that was decreased in siNRP-1 conditions. The in vitro data were confirmed in vivo by MDA-MB-231 and T47D xenografts in Nude mice. Modulation of NRP-1 expression either by shRNA silencing in MDA-MB-231 or by overexpression in T47D induced an increase of proliferation and a decrease of lymph node infiltration by MDA-MB-231-shNRP-1 and a decrease of proliferation and an increase of lymph node infiltration by T47D-NRP-1-RFP in mice treated with Leptin.
This need to be more investigated and may be a new strategy for combined anti-Leptin and anti-VEGF therapies in breast cancer. […] In vitro and in vivo data are a direct evidence of NRP-1 and Leptin association in breast cancer cell line migration. This implication of Leptin and NRP-1 are in agreement of published data but with no association between Leptin and NRP-1.

[3] = molecular target: Human neuropilin-1 (hNRP-1) (Homo sapiens, UniProt O14786); test: Bio-Layer Interferometry (BLI) interaction with hNRP-1; format: binding
Excerpt: FIG. 5. NRP-1, OBR and leptin interactions confirmation using a Bio-Layer Interferometry (BLI) technology (fortebio.com/bli-technology.html): A-Leptin (OB) interaction to OBR is used as a positive control. Human neuropilin-1 (hNRP-1) interact with human OBR with a high affinity and specifically with human leptin (hOB) but not with murine leptin (mOB). VEGF165 binding to hNRP-1 is used as a positive control. B-Leptin and Avastin association increases MDA-MB231 cells transmigration through […] pore Insert. Avastin treatment may prevent a negative feedback control by VEGF of the pro-angiogenic signaling pathway of Leptin. VEGF binds to OBR which confirms our hypothesis that should be more investigated.

[4] = tested on: T47D-NRP-1-RFP xenografts; test: T47D-NRP-1-RFP xenografts in Nude mice; format: in vivo
Excerpt: as §1
This need to be more investigated and may be a new strategy for combined anti-Leptin and anti-VEGF therapies in breast cancer. […] In vitro and in vivo data are a direct evidence of NRP-1 and Leptin association in breast cancer cell line migration. This implication of Leptin and NRP-1 are in agreement of published data but with no association between Leptin and NRP-1. […]

**Q.** Which results are given for “Leptin: small non glycosylated protein, ligand of OBR”?
**A.** NRP-1 phosphorylation (T916) (P-NRP-1): phosphorylated; OBR and STAT3 phosphorylation [1]: increase; direct binding to NRP-1 (NRP-1): unable to bind directly; lymph node infiltration by MDA-MB-231-shNRP-1 [2]: did not increase; interaction with hNRP-1 [3]: interact; lymph node infiltration by T47D-NRP-1-RFP ([4]; Leptin treatment, human KL1 staining): significantly increased; tumor growth ([4]; T47D overexpressing NRP-1 xenograft treated with Leptin): tumor growth decrease
